Activity calls are given as the source filed them. The rule behind the calls is not given here.
System: GENE-TOX genotoxicity assays, various organisms and cells
Test: GENE-TOX mutagenicity studies
Conditions: for call: Assay Type: In vivo carcinogenicity studies
[1] = Species/Cell Type: Escherichia coli polA (W3110 vs P3478), Assay Type: Rec-assay, DNA effects (bacterial DNA repair), Assay Code: RE2-, Evaluation Type: Evaluation A (Pre-1980)
[2] = Species/Cell Type: Saccharomyces cerevisiae, Assay Type: Mitotic recombination or gene conversion, Assay Code: YEH-, Evaluation Type: Evaluation A (Pre-1980)
[3] = Species/Cell Type: Salmonella typhimurium (one or more of the five standard strains: TA98, TA100, TA1535, TA1537, and TA1538), Assay Type: Histidine reverse gene mutation, Ames assay, Assay Code: SAL-, Evaluation Type: Evaluation A (Pre-1980)
[4] = Species/Cell Type: Salmonella typhimurium (one or more of the five standard strains: TA98, TA100, TA1535, TA1537, and TA1538), Assay Type: Histidine reverse gene mutation, Ames assay, Assay Code: SAL+, Evaluation Type: Evaluation A (Pre-1980)
[5] = Species/Cell Type: Bacillus subtilis (H17 vs M45), Assay Type: Rec-assay, spot test, DNA effects (bacterial DNA repair), Assay Code: REW+, Evaluation Type: Evaluation A (Pre-1980)
[6] = Species/Cell Type: Human, Assay Type: Sister-chromatid exchange (SCE) in vitro, Assay Code: SC1+, Evaluation Type: Evaluation B (Post-1980)
[7] = Species/Cell Type: Salmonella typhimurium (one or more of the five standard strains: TA98, TA100, TA1535, TA1537, and TA1538), Assay Type: Histidine reverse gene mutation, Ames assay, Assay Code: SALT, Evaluation Type: Evaluation A (Pre-1980)
[8] = Species/Cell Type: Nonhuman, Assay Type: Sister-chromatid exchange (SCE) in vitro, Assay Code: SC2+D, Dose Response: With dose response, Evaluation Type: Evaluation B (Post-1980)
[9] = Species/Cell Type: Syrian hamster embryo (SA7/SHE) cells, Assay Type: Cell transformation, viral enhanced, Assay Code: CT7-, Evaluation Type: Evaluation A (Pre-1980)
[10] = Species/Cell Type: Syrian hamster embryo (SHE) cells, Assay Type: Cell transformation, clonal assay, Assay Code: CTC+, Evaluation Type: Evaluation A (Pre-1980)
[11] = Species/Cell Type: Saccharomyces cerevisiae, Assay Type: Reverse gene mutation, Assay Code: YER+, Evaluation Type: Evaluation A (Pre-1980)
[12] = Species/Cell Type: Nonhuman, Assay Type: Sister-chromatid exchange (SCE) in vitro, Assay Code: SC2+, Evaluation Type: Evaluation B (Post-1980)
[13] = Species/Cell Type: Salmonella typhimurium, Assay Type: Forward and reverse gene mutation, host-mediated assay, Assay Code: HMA+, Evaluation Type: Evaluation A (Pre-1980)
[14] = Species/Cell Type: Nonhuman, Assay Code: CCG+, Evaluation Type: Evaluation A (Pre-1980)
[15] = Species/Cell Type: Mammalian polychromatic erythrocytes, Assay Type: Micronucleus test, chromosome aberrations, Assay Code: MNTT, Evaluation Type: Evaluation A (Pre-1980)
[16] = Species/Cell Type: Mouse, Sex: Male, Assay Type: Sperm morphology, Assay Code: SPI-, Evaluation Type: Evaluation A (Pre-1980)

## O=C1CCCCCO1
[1]
  mutagenic call: inactive; negative
Species/Cell Type: Escherichia coli polA (W3119 vs P3478), Assay Type: Rec-assay, DNA effects (bacterial DNA repair), Assay Code: RE1-, Evaluation Type: Evaluation A (Pre-1980)
  mutagenic call: inactive; negative
Species/Cell Type: Mouse lymphoma (L5178Y) cells, Assay Type: Forward gene mutation at the thymidine kinase (TK) locus, chromosome aberrations, Assay Code: L51-, Evaluation Type: Evaluation A (Pre-1980)
  mutagenic call: inactive; negative
Species/Cell Type: Nonhuman, Assay Type: Sister-chromatid exchange (SCE) in vitro, Assay Code: SC2-, Evaluation Type: Evaluation A (Pre-1980)
  mutagenic call: inactive; negative
[2]
  mutagenic call: inactive; negative
[3]
  mutagenic call: inactive; negative
Species/Cell Type: Salmonella typhimurium, Assay Type: Forward and reverse gene mutation, host-mediated assay, Assay Code: HMA-, Evaluation Type: Evaluation A (Pre-1980)
  mutagenic call: inactive; negative
Species/Cell Type: Syrian hamster embryo (SHE) cells, Assay Type: Cell transformation, clonal assay, Assay Code: CTC-, Evaluation Type: Evaluation A (Pre-1980)
  mutagenic call: inactive; negative

## C=C1C(=O)OC2CC(C)C3CC(OCC)OC(OCC)C3(C)CC12 (stereo unspecified)
[4]
  mutagenic call: active; positive

## S=C1SSC2=NCCN12
[5]
  mutagenic call: active; positive
Species/Cell Type: Human lymphocytes, Assay Type: Sister-chromatid exchange (SCE) in vitro, Assay Code: SCL+, Evaluation Type: Evaluation B (Post-1980)
  mutagenic call: active; positive
[6]
  mutagenic call: active; positive

## CC(CN1CC(=O)NC(=O)C1)N1CC(=O)NC(=O)C1 (stereo unspecified)
[3]
  mutagenic call: inactive; negative

## C=CC(OC(C)=O)c1ccccc1 (stereo unspecified)
[7]
  mutagenic call: no conclusion

## O=CCCCC=O
Species/Cell Type: Chinese hamster ovary (CHO) cells, Assay Type: Forward gene mutation at the HPRT locus, Assay Code: CHO-, Evaluation Type: Evaluation B (Post-1980)
  mutagenic call: inactive; negative
[8]
  mutagenic call: active; positive

## Cl
[5]
  mutagenic call: active; positive
Species/Cell Type: Bacillus subtilis (H17 vs M45), Assay Type: Rec-assay, spot test, DNA effects (bacterial DNA repair), Assay Code: REW-, Evaluation Type: Evaluation A (Pre-1980)
  mutagenic call: inactive; negative
[9]
  mutagenic call: inactive; negative

## CCCCN(COC(C)=O)N=O
[4]
  mutagenic call: active; positive
[10]
  mutagenic call: active; positive

## Cc1ccc2c(c1O)N[C@H](O)[C@@H]1CC(/C=C/C(N)=O)=CN1C2=O
Species/Cell Type: Mammalian polychromatic erythrocytes, Assay Type: Micronucleus test, chromosome aberrations, Assay Code: MNTT, Evaluation Type: Evaluation B (Post-1980)
  mutagenic call: no conclusion
[8]
  mutagenic call: active; positive
Species/Cell Type: Saccharomyces cerevisiae, Assay Type: Mitotic recombination or gene conversion, Assay Code: YEC+, Evaluation Type: Evaluation A (Pre-1980)
  mutagenic call: active; positive
Species/Cell Type: Saccharomyces cerevisiae, Assay Type: Mitotic recombination or gene conversion, Assay Code: YEH+, Evaluation Type: Evaluation A (Pre-1980)
  mutagenic call: active; positive
[11]
  mutagenic call: active; positive
[7]
  mutagenic call: no conclusion

## Nc1cc2c(cn1)[nH]c1ccccc12
[6]
  mutagenic call: active; positive
[8]
  mutagenic call: active; positive

## CCNc1nc(NC(C)C)nc(SC)n1
Species/Cell Type: Saccharomyces cerevisiae, Assay Type: Mitotic recombination or gene conversion, Assay Code: YEC-, Evaluation Type: Evaluation A (Pre-1980)
  mutagenic call: inactive; negative

## Nc1ccc(N=Nc2ccccc2)cc1
[1]
  mutagenic call: inactive; negative
Species/Cell Type: Escherichia coli polA (W3119 vs P3478), Assay Type: Rec-assay, DNA effects (bacterial DNA repair), Assay Code: RE1T, Evaluation Type: Evaluation A (Pre-1980)
  mutagenic call: no conclusion
Species/Cell Type: Fischer rat embryo (RLV/1706) cells, Assay Type: Cell transformation, viral enhanced, Assay Code: CTR-, Evaluation Type: Evaluation A (Pre-1980)
  mutagenic call: inactive; negative
Species/Cell Type: Mouse embryo (AKR/ME) cells, Assay Type: Cell transformation, Assay Code: CTK-, Evaluation Type: Evaluation A (Pre-1980)
  mutagenic call: inactive; negative
Species/Cell Type: Nonhuman, Assay Code: CCG+L, Evaluation Type: Evaluation A (Pre-1980)
  call: active; positive
[12]
  mutagenic call: active; positive
Species/Cell Type: Nonhuman, Assay Type: Sister-chromatid exchange (SCE) in vivo, Assay Code: SC3+, Evaluation Type: Evaluation B (Post-1980)
  mutagenic call: active; positive
Species/Cell Type: Rat primary hepatocytes, Assay Type: Unscheduled DNA synthesis (UDS) in vitro, DNA effects, Assay Code: UDP+, Evaluation Type: Evaluation A (Pre-1980)
  mutagenic call: active; positive
[2]
  mutagenic call: inactive; negative
Species/Cell Type: Salmonella typhimurium (one or more of the five standard strains: TA98, TA100, TA1535, TA1537, and TA1538), Assay Type: Histidine reverse gene mutation, Ames assay, Assay Code: SAL+*, Activation: With metabolic activation, Evaluation Type: Evaluation A (Pre-1980)
  mutagenic call: active; positive
[13]
  mutagenic call: active; positive
[10]
  mutagenic call: active; positive

## CCNCCNc1ccc(CO)c2sc3cc(Cl)ccc3c(=O)c12
Species/Cell Type: Mouse lymphoma (L5178Y) cells, Assay Type: Forward gene mutation at the thymidine kinase (TK) locus, chromosome aberrations, Assay Code: L51+, Evaluation Type: Evaluation A (Pre-1980)
  mutagenic call: active; positive

## ClC(Cl)Br
Species/Cell Type: Human lymphocytes, Assay Type: Sister-chromatid exchange (SCE) in vitro, Assay Code: SCL+D, Dose Response: With dose response, Evaluation Type: Evaluation B (Post-1980)
  mutagenic call: active; positive
Species/Cell Type: Human, Assay Type: Sister-chromatid exchange (SCE) in vitro, Assay Code: SC1+D, Dose Response: With dose response, Evaluation Type: Evaluation B (Post-1980)
  mutagenic call: active; positive
Species/Cell Type: Nonhuman, Assay Type: Sister-chromatid exchange (SCE) in vivo, Assay Code: SC3+D, Dose Response: With dose response, Evaluation Type: Evaluation B (Post-1980)
  mutagenic call: active; positive
[2]
  mutagenic call: inactive; negative
[4]
  mutagenic call: active; positive

## CN=NNc1ccccc1
Species/Cell Type: Neurospora crassa, Assay Type: Forward gene mutation, Assay Code: NEF+, Evaluation Type: Evaluation A (Pre-1980)
  mutagenic call: active; positive

## Nc1ccc(Sc2ccc(N)cc2)cc1
[14]
  call: active; positive

## Nc1ncnc2n[nH]nc12
Species/Cell Type: Vicia faba, Assay Type: Chromosome aberrations, Assay Code: VIC+, Evaluation Type: Evaluation A (Pre-1980)
  mutagenic call: active; positive

## COC(=O)COc1ccc(Cl)cc1C
[11]
  mutagenic call: active; positive

## S=C1NCCN1
Species/Cell Type: Escherichia coli WP2, Assay Type: Tryptophan reverse gene mutation, Assay Code: WP2-, Evaluation Type: Evaluation A (Pre-1980)
  mutagenic call: inactive; negative
Species/Cell Type: Escherichia coli WP2 UVRA, Assay Type: Tryptophan reverse gene mutation, Assay Code: WPU-, Evaluation Type: Evaluation A (Pre-1980)
  mutagenic call: inactive; negative
[15]
  mutagenic call: no conclusion
[16]
  mutagenic call: inactive; negative
[14]
  call: active; positive
Species/Cell Type: Nonhuman, Assay Type: Sister-chromatid exchange (SCE) in vitro, Assay Code: SC2T, Evaluation Type: Evaluation B (Post-1980)
  mutagenic call: no conclusion
Species/Cell Type: Rodents, Sex: Male, Assay Type: Dominant lethal test, Assay Code: DLT+, Evaluation Type: Evaluation A (Pre-1980)
  mutagenic call: active; positive
[4]
  mutagenic call: active; positive
[13]
  mutagenic call: active; positive
[9]
  mutagenic call: inactive; negative
Species/Cell Type: Tradescantia species, Assay Type: Gene mutation, Assay Code: TRM+D, Dose Response: With dose response, Evaluation Type: Evaluation A (Pre-1980)
  mutagenic call: active; positive

## O=C1CCCO1
[15]
  mutagenic call: no conclusion
[16]
  mutagenic call: inactive; negative
[12]
  mutagenic call: active; positive

## Nc1nc(N)c2cc(S(=O)(=O)c3ccc4ccccc4c3)ccc2n1
[7]
  mutagenic call: no conclusion

## C=CCNC(=O)OC1(SC)C(=O)c2ccccc2C1=O
Species/Cell Type: Salmonella typhimurium, Assay Type: Forward and reverse gene mutation, host-mediated assay, Assay Code: HMAT, Evaluation Type: Evaluation A (Pre-1980)
  mutagenic call: no conclusion

## CCCCOC(=O)c1ccccc1C(=O)OCCCC
[12]
  mutagenic call: active; positive
Species/Cell Type: Nonhuman, Assay Type: Sister-chromatid exchange (SCE) in vitro, Assay Code: SC2T, Evaluation Type: Evaluation A (Pre-1980)
  mutagenic call: no conclusion
Species/Cell Type: Saccharomyces cerevisiae, Assay Type: Reverse gene mutation, Assay Code: YER-*, Activation: With metabolic activation, Evaluation Type: Evaluation A (Pre-1980)
  mutagenic call: inactive; negative

Reference: PubChem BioAssay AID1259408 (Genetic Toxicology Data Bank (GENE-TOX), 2018)
